These results are taken from patent US11932606B2, “Anti-cancer/anti-fibrosis compounds” (THE REGENTS OF THE UNIVERSITY OF CALIFORNIA, priority 2017, dated 2024).

One assay addresses HIPK2 (Homo sapiens (Human), UniProt Q9H2X6). Nature of the assay: HIPK2 enzymatic activity inhibition (Z'-LYTE). Type of assay: biochemical. The method, then: HIPK2 Enzymatic Activity Inhibition: Determination of IC50 Values for Selected Compounds
The half maximal inhibitory concentration (IC50) with respect to HIPK2 inhibition was determined for the compounds of the invention by using Z′-LYTE™ from ThermoFisher Scientific's SelectScreen™ Biochemical Kinase Profiling Service (Waltham, MA). Compounds were screened in 1% DMSO (final) in the well. For 10 point titrations, 3-fold serial dilutions were conducted from the starting concentration. The 2×HIPK2/Ser/Thr 09 mixture was prepared in 50 mM HEPES pH 7.5, 0.01% BRIJ-35, 10 mM MgCl2, 1 mM EGTA.
100 nL of 100× test compound in 100% DMSO, 2.4 uL of kinase buffer (50 mM HEPES pH 7.5, 0.01% BRIJ-35, 10 mM MgCl2, 1 mM EGTA), 5 uL of 2×HIPK2/Ser/Thr 09 mixture, and 2.5 uL of 4×ATP solution were mixed and agitated for 30 seconds. Then the Kinase Reaction was incubated at room temperature for 60 minutes. […] After 30 second of plate shake, the reaction plate was incubated for another 60 min at room temperature. Then the plate was read on a fluorescence plate reader (CLARIOstar, BMG Labtech, Germany) as plate reader and data was analyzed using XLfit from IDBS.

The next assay has as its target CSNK2A1 (CK2 alpha 1) (Homo sapiens (Human), UniProt P68400). Nature of the assay: CK2 alpha 1 enzymatic activity inhibition (Z'-LYTE). Type of assay: biochemical. The following applies: read-out: CK2a IC50. As for the experimental part: CK2 Alpha 1 Enzymatic Activity Inhibition: Determination of IC50 Values for Selected Compounds
The half maximal inhibitory concentration (IC50) with respect to CK2 alpha 1 inhibition was determined for the compounds of the invention by using Z′-LYTE™ from ThermoFisher Scientific's SelectScreen™ Biochemical Kinase Profiling Service (Waltham, MA). Compounds were screened in 1% DMSO (final) in the well. For 10 point titrations, 3-fold serial dilutions were conducted from the starting concentration. The 2×CSNK2A1 (CK2 alpha 1)/Ser/Thr 11 mixture is prepared in 50 mM HEPES pH 7.5, 0.01% BRIJ-35, 10 mM MgCl2, 1 mM EGTA. The black 384-well plate (Corning Cat. #4514) were used for the assay. 100 nL of 100× test compound in 100% DMSO, 2.4 uL of kinase buffer (50 mM HEPES pH 7.5, 0.01% BRIJ-35, 10 mM MgCl2, 1 mM EGTA), 5 uL of 2×CSNK2A1 (CK2 alpha 1)/Ser/Thr 11 mixture, and 2.5 uL of 4×ATP solution were mixed and agitated for 30 seconds. Then the Kinase Reaction was incubated at room temperature for 60 minutes. The final 10 uL Kinase Reaction consisted of 0.68-25.7 ng CSNK2A1 (CK2 alpha 1) and 2 μM Ser/Thr 11 in 50 mM HEPES pH 7.5, 0.01% BRIJ-35, 10 mM MgCl2, 1 mM EGTA. After the 1 hour Kinase Reaction incubation, 5 uL of a 1:16 dilution of Development Reagent B is added. After 30 second of plate shake, the reaction plate was incubated for another 60 min at room temperature. Then the plate was read on a fluorescence plate reader (CLARIOstar, BMG Labtech, Germany) and data was analyzed using XLfit from IDBS. The dose response curve was curve fit to model number 205 (sigmoidal dose-response model).

Chain of HIPK2 (Q9H2X6 whole entry): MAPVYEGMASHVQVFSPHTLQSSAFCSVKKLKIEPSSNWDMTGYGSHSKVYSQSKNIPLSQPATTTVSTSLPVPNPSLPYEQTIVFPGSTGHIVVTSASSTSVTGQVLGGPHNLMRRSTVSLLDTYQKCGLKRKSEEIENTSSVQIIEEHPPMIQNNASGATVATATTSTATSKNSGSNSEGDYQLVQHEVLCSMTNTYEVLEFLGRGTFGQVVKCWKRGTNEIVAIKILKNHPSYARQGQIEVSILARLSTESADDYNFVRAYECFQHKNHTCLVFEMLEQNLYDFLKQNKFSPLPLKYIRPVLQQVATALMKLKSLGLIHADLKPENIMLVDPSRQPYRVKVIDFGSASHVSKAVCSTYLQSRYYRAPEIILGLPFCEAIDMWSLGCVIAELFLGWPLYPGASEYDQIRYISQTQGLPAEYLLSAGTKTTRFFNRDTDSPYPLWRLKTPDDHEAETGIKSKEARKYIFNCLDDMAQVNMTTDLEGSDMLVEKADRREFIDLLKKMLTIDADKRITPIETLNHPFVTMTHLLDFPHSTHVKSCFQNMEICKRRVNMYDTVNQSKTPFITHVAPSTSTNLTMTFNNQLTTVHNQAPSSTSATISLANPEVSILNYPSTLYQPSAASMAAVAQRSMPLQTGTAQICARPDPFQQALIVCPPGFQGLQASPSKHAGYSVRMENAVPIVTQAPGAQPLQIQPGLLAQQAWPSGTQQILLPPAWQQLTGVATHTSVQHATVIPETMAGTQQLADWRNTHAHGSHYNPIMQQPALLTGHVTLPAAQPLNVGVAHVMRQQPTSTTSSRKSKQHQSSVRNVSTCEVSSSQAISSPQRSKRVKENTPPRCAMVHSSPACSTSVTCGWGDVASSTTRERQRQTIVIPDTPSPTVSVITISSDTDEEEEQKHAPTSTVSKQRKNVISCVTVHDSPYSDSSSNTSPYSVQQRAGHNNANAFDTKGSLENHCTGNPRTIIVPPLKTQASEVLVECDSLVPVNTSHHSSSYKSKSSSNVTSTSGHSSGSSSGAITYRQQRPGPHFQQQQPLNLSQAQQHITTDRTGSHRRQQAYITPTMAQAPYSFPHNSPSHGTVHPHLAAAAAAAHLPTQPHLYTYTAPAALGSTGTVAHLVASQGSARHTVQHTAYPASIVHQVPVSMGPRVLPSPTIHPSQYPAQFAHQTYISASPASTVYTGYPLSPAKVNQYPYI
Chain of CSNK2A1 (CK2 alpha 1) (P68400 whole entry): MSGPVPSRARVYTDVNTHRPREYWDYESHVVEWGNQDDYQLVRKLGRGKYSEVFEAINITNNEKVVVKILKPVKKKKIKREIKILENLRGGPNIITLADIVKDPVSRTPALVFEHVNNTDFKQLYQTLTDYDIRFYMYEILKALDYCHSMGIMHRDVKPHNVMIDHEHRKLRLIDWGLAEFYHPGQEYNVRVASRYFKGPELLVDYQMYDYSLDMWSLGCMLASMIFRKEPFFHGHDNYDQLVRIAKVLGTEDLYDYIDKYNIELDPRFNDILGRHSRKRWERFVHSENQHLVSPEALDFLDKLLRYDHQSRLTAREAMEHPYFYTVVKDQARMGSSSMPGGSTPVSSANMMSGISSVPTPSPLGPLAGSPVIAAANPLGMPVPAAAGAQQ

As for `O=C(O)c1ccc2c(c1)cc([N+](=O)[O-])c1ccncc12` [Compound 26, Sodium 5-nitrobenzo[h]isoquinoline-8-carboxylate], the results for the IC50 against HIPK2 and at CSNK2A1 (CK2 alpha 1) were 300 to 1000 nM and under 300 nM, respectively.
In the case of `O=C(O)c1ccc2c(c1)cc(-c1ccc(Cl)cc1)c1ccncc12` [Compound 6, Sodium 5-(4-chlorophenyl)benzo[h]isoquinoline-8-carboxylate], the IC50 lay in the range of 1000 to 5000 nM against HIPK2 and 300 to 1000 nM on CSNK2A1 (CK2 alpha 1).
For `O=C(O)c1ccc2c(c1)cc(N[C@@H]1CCCNC1)c1ccncc12` [Compound 13, (R)-5-(Piperidin-3-ylamino)benzo[h]isoquinoline-8-carboxylic acid], the IC50 against HIPK2 and on CSNK2A1 (CK2 alpha 1) was 1000 to 5000 nM each time.

A word on the IC50: it is the concentration that inhibits the measured activity by half.
